These results are taken from ChEMBL document CHEMBL4020806, “Evaluation of the antiprotozoan properties of 5'-norcarbocyclic pyrimidine nucleosides” (Bioorg Med Chem Lett, 2017).

SMILES strings stand for the structures.

The first test concerns Trypanosoma brucei. As to the kind of experiment: Antiprotozoal activity against bloodstream form of wild type Trypanosoma brucei after 16 hrs by Alamar Blue assay. The format is functional.
Details: not given
(Alamar Blue is a resazurin reagent that responds to reducing activity.)
In turn, `O=c1[nH]c(=O)n([C@H]2C=C[C@@H](O)C2)cc1Br` gave a half-maximal effective concentration (EC50) of 37.3 µM.

`Cc1cc(=O)[nH]c(=O)n1[C@H]1C=C[C@@H](OC(=O)c2ccccc2)C1` had an EC50 of 37.6 µM.

Regarding `N#Cc1cccc(C(=O)O[C@@H]2C=C[C@H](n3ccc(=O)n(Cc4ccccc4)c3=O)C2)c1`, the EC50 was 27.9 µM.

`Cc1cc(C)cc(Cn2c(=O)cc(C)n([C@H]3C=C[C@@H](OC(=O)c4ccccc4)C3)c2=O)c1` gave an EC50 of 15.1 µM.

On to `O=C(O[C@@H]1C=C[C@H](n2ccc(=O)[nH]c2=O)C1)c1cc(Cl)cc(Cl)c1`, for which the EC50 was 33.2 µM.

In the case of `N=C(N)c1ccc(OCCCCCOc2ccc(C(=N)N)cc2)cc1` [PENTAMIDINE], a half-maximal effect (EC50) was put at 0.0057 µM.

Take `Cc1cc(C)cc(C(=O)O[C@@H]2C=C[C@H](n3ccc(=O)n(Cc4ccccc4)c3=O)C2)c1`: the EC50 was 8.6 µM.

A further test relates to Trypanosoma brucei. The experiment in a line: Antiprotozoal activity against bloodstream form of multi-drug resistant Trypanosoma brucei B48 after 16 hrs by Alamar Blue assay. The format is functional. The note with it: B48, 16 h.
Consider `O=c1[nH]c(=O)n([C@H]2C=C[C@@H](O)C2)cc1Br`, for which the EC50 stood at 36.7 µM.

`Cc1cc(=O)[nH]c(=O)n1[C@H]1C=C[C@@H](OC(=O)c2ccccc2)C1` returned an EC50 of 38.1 µM.

On to `N#Cc1cccc(C(=O)O[C@@H]2C=C[C@H](n3ccc(=O)n(Cc4ccccc4)c3=O)C2)c1`, for which the EC50 is 25 µM.

The compound `Cc1cc(C)cc(Cn2c(=O)cc(C)n([C@H]3C=C[C@@H](OC(=O)c4ccccc4)C3)c2=O)c1` showed an EC50 of 14 µM.

The compound `O=C(O[C@@H]1C=C[C@H](n2ccc(=O)[nH]c2=O)C1)c1cc(Cl)cc(Cl)c1` yielded an EC50 of 34.8 µM.

The compound `N=C(N)c1ccc(OCCCCCOc2ccc(C(=N)N)cc2)cc1` [PENTAMIDINE] returned a 50% effective concentration (EC50) of 0.938 µM.

In turn, `Cc1cc(C)cc(C(=O)O[C@@H]2C=C[C@H](n3ccc(=O)n(Cc4ccccc4)c3=O)C2)c1` yielded an EC50 of 8.7 µM.

For a further test, the system named is Trypanosoma brucei. As to the kind of experiment: Antiprotozoal activity against PYR6-5 deficient bloodstream form of 5-FU hypersensitive Trypanosoma brucei after 16 hrs by Alamar Blue assay. The format is functional.
Details: not given
`O=c1[nH]c(=O)n([C@H]2C=C[C@@H](O)C2)cc1Br`: the EC50 was 35.7 µM.

In turn, `Cc1cc(=O)[nH]c(=O)n1[C@H]1C=C[C@@H](OC(=O)c2ccccc2)C1` came in with a concentration giving a half-maximal response (EC50) of 34.3 µM.

`N#Cc1cccc(C(=O)O[C@@H]2C=C[C@H](n3ccc(=O)n(Cc4ccccc4)c3=O)C2)c1` registered a concentration giving a half-maximal response (EC50) of 26.4 µM.

`Cc1cc(C)cc(Cn2c(=O)cc(C)n([C@H]3C=C[C@@H](OC(=O)c4ccccc4)C3)c2=O)c1` registered an EC50 of 15.6 µM.

Compound `O=C(O[C@@H]1C=C[C@H](n2ccc(=O)[nH]c2=O)C1)c1cc(Cl)cc(Cl)c1` returned an EC50 of 31.6 µM.

Take `N=C(N)c1ccc(OCCCCCOc2ccc(C(=N)N)cc2)cc1` [PENTAMIDINE]: the EC50 came to 0.0051 µM.

On to `Cc1cc(C)cc(C(=O)O[C@@H]2C=C[C@H](n3ccc(=O)n(Cc4ccccc4)c3=O)C2)c1`, for which a half-maximal response (EC50) required 11.1 µM.

Another test deals with Trypanosoma brucei. As to the kind of experiment: Antiprotozoal activity against bloodstream form of 5FU resistant Trypanosoma brucei after 16 hrs by Alamar Blue assay. The format is functional.
Details: not given
Regarding `O=c1[nH]c(=O)n([C@H]2C=C[C@@H](O)C2)cc1Br`, the EC50 stood at 32.4 µM.

In the case of `Cc1cc(=O)[nH]c(=O)n1[C@H]1C=C[C@@H](OC(=O)c2ccccc2)C1`, the EC50 was 32 µM.

Take `N#Cc1cccc(C(=O)O[C@@H]2C=C[C@H](n3ccc(=O)n(Cc4ccccc4)c3=O)C2)c1`: the EC50 came to 21.4 µM.

Consider `Cc1cc(C)cc(Cn2c(=O)cc(C)n([C@H]3C=C[C@@H](OC(=O)c4ccccc4)C3)c2=O)c1`, for which a half-maximal effect (EC50) was put at 14.3 µM.

In the case of `O=C(O[C@@H]1C=C[C@H](n2ccc(=O)[nH]c2=O)C1)c1cc(Cl)cc(Cl)c1`, the EC50 was 26.7 µM.

Compound `N=C(N)c1ccc(OCCCCCOc2ccc(C(=N)N)cc2)cc1` [PENTAMIDINE] came in with a 50% effective concentration (EC50) of 0.0061 µM.

`Cc1cc(C)cc(C(=O)O[C@@H]2C=C[C@H](n3ccc(=O)n(Cc4ccccc4)c3=O)C2)c1`: it took 8.7 µM to reach a half-maximal effect (EC50).

In the next test the test system is Trypanosoma brucei. The experiment in a line: Resistance factor, ratio of EC50 for multi-drug resistant Trypanosoma brucei B48 to EC50 for wild type Trypanosoma brucei. The format is functional.
Details: not given
For `O=c1[nH]c(=O)n([C@H]2C=C[C@@H](O)C2)cc1Br`, the “Ratio EC50” value is recorded as 1.

Consider `Cc1cc(=O)[nH]c(=O)n1[C@H]1C=C[C@@H](OC(=O)c2ccccc2)C1`, for which the “Ratio EC50” value amounted to 1.

`N#Cc1cccc(C(=O)O[C@@H]2C=C[C@H](n3ccc(=O)n(Cc4ccccc4)c3=O)C2)c1`: the “Ratio EC50” value amounted to 0.9.

For `Cc1cc(C)cc(Cn2c(=O)cc(C)n([C@H]3C=C[C@@H](OC(=O)c4ccccc4)C3)c2=O)c1`, the “Ratio EC50” value was 0.9.

`O=C(O[C@@H]1C=C[C@H](n2ccc(=O)[nH]c2=O)C1)c1cc(Cl)cc(Cl)c1`: the “Ratio EC50” value is on record as 1.

As to `N=C(N)c1ccc(OCCCCCOc2ccc(C(=N)N)cc2)cc1` [PENTAMIDINE], the “Ratio EC50” value turned out to be 164.

As for `Cc1cc(C)cc(C(=O)O[C@@H]2C=C[C@H](n3ccc(=O)n(Cc4ccccc4)c3=O)C2)c1`, the “Ratio EC50” value is reported as 1.

In a further test the test system is Trypanosoma brucei. The experiment in a line: Resistance factor, ratio of EC50 for PYR6-5 deficient bloodstream form of 5-FU hypersensitive Trypanosoma brucei to EC50 for wild type Trypanosoma brucei.
Details: not given
In kind it is functional.
Regarding `O=c1[nH]c(=O)n([C@H]2C=C[C@@H](O)C2)cc1Br`, the “Ratio EC50” value was 0.96.

Consider `Cc1cc(=O)[nH]c(=O)n1[C@H]1C=C[C@@H](OC(=O)c2ccccc2)C1`, for which the “Ratio EC50” value is 0.91.

For `N#Cc1cccc(C(=O)O[C@@H]2C=C[C@H](n3ccc(=O)n(Cc4ccccc4)c3=O)C2)c1`, the “Ratio EC50” value is 0.94.

In the case of `Cc1cc(C)cc(Cn2c(=O)cc(C)n([C@H]3C=C[C@@H](OC(=O)c4ccccc4)C3)c2=O)c1`, the “Ratio EC50” value is listed as 1.03.

As for `O=C(O[C@@H]1C=C[C@H](n2ccc(=O)[nH]c2=O)C1)c1cc(Cl)cc(Cl)c1`, the “Ratio EC50” value came out at 0.95.

As to `N=C(N)c1ccc(OCCCCCOc2ccc(C(=N)N)cc2)cc1` [PENTAMIDINE], the “Ratio EC50” value came out at 0.89.

Regarding `Cc1cc(C)cc(C(=O)O[C@@H]2C=C[C@H](n3ccc(=O)n(Cc4ccccc4)c3=O)C2)c1`, the “Ratio EC50” value is recorded as 1.29.

The next test concerns Trypanosoma brucei. As to the kind of experiment: Resistance factor, ratio of EC50 for 5FU resistant Trypanosoma brucei to EC50 for wild type Trypanosoma brucei. The format is functional.
Details: not given
Turning to `O=c1[nH]c(=O)n([C@H]2C=C[C@@H](O)C2)cc1Br`, the “Ratio EC50” value was found to be 0.87.

For the compound `Cc1cc(=O)[nH]c(=O)n1[C@H]1C=C[C@@H](OC(=O)c2ccccc2)C1`, the “Ratio EC50” value stood at 0.85.

In the case of `N#Cc1cccc(C(=O)O[C@@H]2C=C[C@H](n3ccc(=O)n(Cc4ccccc4)c3=O)C2)c1`, the “Ratio EC50” value is reported as 0.76.

As for `Cc1cc(C)cc(Cn2c(=O)cc(C)n([C@H]3C=C[C@@H](OC(=O)c4ccccc4)C3)c2=O)c1`, the “Ratio EC50” value is listed as 0.95.

Turning to `O=C(O[C@@H]1C=C[C@H](n2ccc(=O)[nH]c2=O)C1)c1cc(Cl)cc(Cl)c1`, the “Ratio EC50” value is 0.8.

Consider `N=C(N)c1ccc(OCCCCCOc2ccc(C(=N)N)cc2)cc1` [PENTAMIDINE], for which the “Ratio EC50” value stood at 1.06.

Turning to `Cc1cc(C)cc(C(=O)O[C@@H]2C=C[C@H](n3ccc(=O)n(Cc4ccccc4)c3=O)C2)c1`, the “Ratio EC50” value was determined as 1.01.

Another test concerns Leishmania mexicana. As to the kind of experiment: Antileishmanial activity against wild type Leishmania mexicana after 16 hrs by Alamar Blue assay. The format is functional.
Details: not given
On to `O=c1[nH]c(=O)n([C@H]2C=C[C@@H](O)C2)cc1Br`, for which the response was half-maximal at 97.4 µM (EC50).

Consider `Cc1cc(=O)[nH]c(=O)n1[C@H]1C=C[C@@H](OC(=O)c2ccccc2)C1`, for which the EC50 worked out at 94.1 µM.

`N#Cc1cccc(C(=O)O[C@@H]2C=C[C@H](n3ccc(=O)n(Cc4ccccc4)c3=O)C2)c1`: the EC50 was determined as 45.5 µM.

Turning to `Cc1cc(C)cc(Cn2c(=O)cc(C)n([C@H]3C=C[C@@H](OC(=O)c4ccccc4)C3)c2=O)c1`, the 50% effective concentration (EC50) was 25.6 µM.

With `O=C(O[C@@H]1C=C[C@H](n2ccc(=O)[nH]c2=O)C1)c1cc(Cl)cc(Cl)c1`, the EC50 was found to be 81.5 µM.

`N=C(N)c1ccc(OCCCCCOc2ccc(C(=N)N)cc2)cc1` [PENTAMIDINE] registered an EC50 of 1.9 µM.

With `Cc1cc(C)cc(C(=O)O[C@@H]2C=C[C@H](n3ccc(=O)n(Cc4ccccc4)c3=O)C2)c1`, the EC50 was determined as 31.8 µM.

In a further test the test system is Leishmania mexicana. As to the kind of experiment: Antileishmanial activity against 5FU resistant Leishmania mexicana after 16 hrs by Alamar Blue assay. The format is functional.
Details: not given
Compound `O=c1[nH]c(=O)n([C@H]2C=C[C@@H](O)C2)cc1Br` returned an EC50 of 97.3 µM.

Take `Cc1cc(=O)[nH]c(=O)n1[C@H]1C=C[C@@H](OC(=O)c2ccccc2)C1`: the half-maximal effective concentration (EC50) was 94.9 µM.

Compound `N#Cc1cccc(C(=O)O[C@@H]2C=C[C@H](n3ccc(=O)n(Cc4ccccc4)c3=O)C2)c1` yielded an EC50 of 52.6 µM.

`Cc1cc(C)cc(Cn2c(=O)cc(C)n([C@H]3C=C[C@@H](OC(=O)c4ccccc4)C3)c2=O)c1` had an EC50 of 28.5 µM.

Turning to `O=C(O[C@@H]1C=C[C@H](n2ccc(=O)[nH]c2=O)C1)c1cc(Cl)cc(Cl)c1`, the EC50 amounted to 89.4 µM.

In turn, `N=C(N)c1ccc(OCCCCCOc2ccc(C(=N)N)cc2)cc1` [PENTAMIDINE] gave an EC50 of 1.63 µM.

In the case of `Cc1cc(C)cc(C(=O)O[C@@H]2C=C[C@H](n3ccc(=O)n(Cc4ccccc4)c3=O)C2)c1`, a half-maximal response (EC50) required 25.1 µM.

In another test the test system is Leishmania mexicana. As to the kind of experiment: Resistance factor, ratio of EC50 for 5FU resistant Leishmania mexicana to EC50 for wild type Leishmania mexicana. The format is functional.
Details: not given
In the case of `O=c1[nH]c(=O)n([C@H]2C=C[C@@H](O)C2)cc1Br`, the “Ratio EC50” value was 1.

With `Cc1cc(=O)[nH]c(=O)n1[C@H]1C=C[C@@H](OC(=O)c2ccccc2)C1`, the “Ratio EC50” value is reported as 1.01.

Take `N#Cc1cccc(C(=O)O[C@@H]2C=C[C@H](n3ccc(=O)n(Cc4ccccc4)c3=O)C2)c1`: the “Ratio EC50” value worked out at 1.16.

As for `Cc1cc(C)cc(Cn2c(=O)cc(C)n([C@H]3C=C[C@@H](OC(=O)c4ccccc4)C3)c2=O)c1`, the “Ratio EC50” value was found to be 1.11.

Take `O=C(O[C@@H]1C=C[C@H](n2ccc(=O)[nH]c2=O)C1)c1cc(Cl)cc(Cl)c1`: the “Ratio EC50” value came to 1.1.

Take `N=C(N)c1ccc(OCCCCCOc2ccc(C(=N)N)cc2)cc1` [PENTAMIDINE]: the “Ratio EC50” value is recorded as 0.86.

For `Cc1cc(C)cc(C(=O)O[C@@H]2C=C[C@H](n3ccc(=O)n(Cc4ccccc4)c3=O)C2)c1`, the “Ratio EC50” value turned out to be 0.79.

One may read the EC50 as the concentration needed to bring the measured effect to its halfway point. The low end stands for a more potent agent, the high end for a less potent agent.
